Measured values published in PubChem BioAssay (NCI).
Several values for one entry are separate records, joined by “and”; a condition that tells them apart may be missing. Equal entries are not always repeated.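 The compound was tested at five concentrations on cells cultured in 96-well plates, with a 48-hour exposure period. GI50: concentration for 50% inhibition of growth. Definition used: TGI = concentration required for complete inhibition of growth.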

How the values were obtained:
Test in all cases: NCI tumour cell line growth inhibition, 48 h
A549 NSCLC = system: A549 NSCLC
HCC-2998 colon = system: HCC-2998 colon
KM12 colon = system: KM12 colon
M14 melanoma = system: M14 melanoma
MALME-3M melanoma = system: MALME-3M melanoma
NCI-H226 lung = system: NCI-H226 lung
SF-268 CNS = system: SF-268 CNS
SK-MEL-2 melanoma = system: SK-MEL-2 melanoma
TK-10 renal = system: TK-10 renal
UACC-257 melanoma = system: UACC-257 melanoma

| SMILES | GI50 (A549 NSCLC) | TGI (A549 NSCLC) | GI50 (HCC-2998 colon) | TGI (HCC-2998 colon) | GI50 (KM12 colon) | TGI (KM12 colon) | GI50 (M14 melanoma) | TGI (M14 melanoma) | GI50 (MALME-3M melanoma) | TGI (MALME-3M melanoma) | GI50 (NCI-H226 lung) | TGI (NCI-H226 lung) | GI50 (SF-268 CNS) | TGI (SF-268 CNS) | GI50 (SK-MEL-2 melanoma) | TGI (SK-MEL-2 melanoma) | GI50 (TK-10 renal) | TGI (TK-10 renal) | GI50 (UACC-257 melanoma) | TGI (UACC-257 melanoma) |
| --- | --- | --- | --- | --- | --- | --- | --- | --- | --- | --- | --- | --- | --- | --- | --- | --- | --- | --- | --- | --- |
| CC/C=C\C[C@H](O)C/C=C1/C(=O)C=C[C@@H]1C/C=C\CCCC(=O)NC(C)C | 3.24 µM | 9.46 µM | 1.87 µM | 3.42 µM | 1.91 µM | 4.89 µM | 2.87 µM | 10 µM | 2.4 µM | 6.69 µM | 2.31 µM | 4.74 µM | 3 µM | 13.3 µM | 2.52 µM | 6.88 µM | 3.73 µM | 9.64 µM | 2.17 µM | 6.22 µM |
| COC(=O)C1(C)C=C(Nc2ccccc2)C(=O)N1c1ccccc1 (stereo not given) |  | > 100 µM |  | > 100 µM |  | > 100 µM |  | > 100 µM |  | > 100 µM |  | > 100 µM |  | > 100 µM |  | > 100 µM |  | > 100 µM |  | > 100 µM |
| COc1cccc(-c2nn(-c3ccccc3)cc2-c2ccnc(NCCNS(=O)(=O)c3ccc(Cl)cc3)c2)c1 | 5.86 µM | > 100 µM | 4.26 µM | > 100 µM | 3.72 µM | > 100 µM | 4.15 µM | > 100 µM | 3.8 µM | > 100 µM | 7.21 µM | > 100 µM | 5.49 µM | > 100 µM | 3.84 µM | 26.9 µM | 4.75 µM | > 100 µM | 7.03 µM | 44.9 µM |
| CS(=O)(=O)c1ccc(Oc2cc(F)cc(C#N)c2)c2c1[C@H](O)[C@H](F)[C@@H]2F | > 100 µM | > 100 µM | > 100 µM | > 100 µM | > 100 µM | > 100 µM | > 100 µM | > 100 µM | > 100 µM | > 100 µM | > 100 µM | > 100 µM | > 100 µM | > 100 µM | > 100 µM | > 100 µM | > 100 µM | > 100 µM | > 100 µM | > 100 µM |
| Cn1c(C(N)=O)cc2c1-c1nc(Nc3ccccc3)ncc1CCC2 | 3.67 µM | 22 µM | 10.3 µM | 33.3 µM | 1.48 µM | 18.3 µM | 4.73 µM | 41.1 µM | 7.63 µM | 57 µM | 0.902 µM | 33.7 µM | 5.52 µM | > 100 µM | 5.42 µM | 23.1 µM | 3.97 µM | 52.3 µM | 19.7 µM | 88.7 µM |
| COC(=O)/C=C/c1cc(O)c2c(c1)C(C(=O)OC)C(c1ccc(O)c(O)c1)O2 (stereo not given) | 4.95 µM and 1.11 µM | 61.9 µM and 23.7 µM | 1.53 µM and 0.558 µM | 72.7 µM and > 46.9 µM | 0.395 µM | 20.7 µM and 16.6 µM | 0.131 µM and 0.0279 µM | > 41.3 µM | 12.5 µM and 17.7 µM | 62 µM and 86.1 µM | 2.93 µM and 3.86 µM | 24.3 µM and > 100 µM | 0.721 µM and 0.0833 µM | > 89.8 µM | 0.454 µM and 0.093 µM | 35.2 µM and > 55 µM | 5.24 µM and 1.27 µM | 67.5 µM and > 23.5 µM | 11.5 µM and 4.5 µM | 63.3 µM and 48.7 µM |
| CN/N=C(/Cc1occc(=O)c1O)C(=O)Nc1ccc(C)c(C)c1 |  | > 100 µM |  | > 100 µM |  | > 100 µM |  | > 100 µM |  | > 100 µM |  | > 100 µM |  | > 100 µM |  | > 100 µM |  | > 100 µM |  | > 100 µM |
| COc1cc(/C=C(/C)[N+](=O)[O-])ccc1O | 3.94 µM and 2.5 µM | 14.6 µM and 7.07 µM | 1.77 µM and 1.68 µM | 3.28 µM and 3.08 µM | 2.97 µM and 1.93 µM | 7.52 µM and 3.75 µM | 1.83 µM and 1.85 µM | 3.79 µM and 3.6 µM | 2 µM and 1.53 µM | 4.08 µM and 3.58 µM | 2.58 µM and 4.07 µM | 6.96 µM and 14.2 µM | 2.73 µM and 1.92 µM | 6.94 µM and 4.51 µM | 2.15 µM and 1.7 µM | 4.3 µM and 3.49 µM | 1.97 µM and 1.48 µM | 3.57 µM and 2.82 µM | 1.66 µM and 1.61 µM | 3.39 µM and 3.25 µM |
| C=C1C(=O)O[C@H]2[C@H]1CC/C(COC(=O)C(=O)c1c[nH]c3ccccc13)=C\CC[C@@]1(C)O[C@@H]21 | 2.27 µM | 6.08 µM | 1.95 µM | 4.02 µM | 3.28 µM | 13.4 µM | 2 µM | 5.19 µM | 2.09 µM | 4.33 µM | 1.98 µM | 3.89 µM | 2.39 µM | 7.68 µM | 1.63 µM | 3.78 µM | 1.38 µM | 2.81 µM | 1.64 µM | 3.53 µM |
| COc1ccc(C(=O)Cn2c(C(=O)c3ccc(OC)cc3)nc3ccccc32)cc1 | 5.47 µM | > 100 µM | 5.64 µM | > 100 µM | 1.16 µM | > 100 µM | 1.59 µM | > 100 µM | 2.91 µM | > 100 µM | > 28.5 µM | > 100 µM | 6.25 µM | > 100 µM | 12.6 µM | > 100 µM | 4.8 µM | > 100 µM | 53 µM | > 100 µM |
| Oc1c(CN2CCC(N3CCOCC3)CC2)cc(Cc2cc(CN3CCC(N4CCOCC4)CC3)c(O)c3ncccc23)c2cccnc12 | 1.62 µM | 12.5 µM | 1.52 µM | 13.5 µM | 0.428 µM | > 100 µM | 0.61 µM | 17.1 µM | 4.22 µM | 26.5 µM | 0.641 µM | 4.75 µM | 0.343 µM | 38.1 µM | 4.64 µM | 30.3 µM | 1.12 µM | 16.7 µM | 3.62 µM | 16.3 µM |
| Oc1ccc(C(c2ccccc2)(c2ccccc2)c2ccccc2)cc1 | 12.8 µM | 29 µM | 12.7 µM | 25.7 µM | 19.3 µM | 48.7 µM | 15.6 µM | 30.3 µM | 27.2 µM | 68.9 µM | 19.4 µM | 37.6 µM | 21.5 µM | 69.4 µM | 13.6 µM | 27 µM | 36.7 µM | 87.4 µM | 15.5 µM | 31.3 µM |
